This note sets out measurements from US10435399B2, “HDAC6 inhibitory heterocyclic compound” (TAKEDA PHARMACEUTICAL COMPANY LIMITED, priority 2017, dated 2019).

In data set [1] the target is T1, HDAC6 enzyme (Homo sapiens, UniProt Q9UBN7).
T1 construct: transducing full length HDAC6 gene into Sf-9 insect cells; GST; purchased SignalChem; host or cells: Sf-9 insect cells
T1 sequence (Q9UBN7 1-1215): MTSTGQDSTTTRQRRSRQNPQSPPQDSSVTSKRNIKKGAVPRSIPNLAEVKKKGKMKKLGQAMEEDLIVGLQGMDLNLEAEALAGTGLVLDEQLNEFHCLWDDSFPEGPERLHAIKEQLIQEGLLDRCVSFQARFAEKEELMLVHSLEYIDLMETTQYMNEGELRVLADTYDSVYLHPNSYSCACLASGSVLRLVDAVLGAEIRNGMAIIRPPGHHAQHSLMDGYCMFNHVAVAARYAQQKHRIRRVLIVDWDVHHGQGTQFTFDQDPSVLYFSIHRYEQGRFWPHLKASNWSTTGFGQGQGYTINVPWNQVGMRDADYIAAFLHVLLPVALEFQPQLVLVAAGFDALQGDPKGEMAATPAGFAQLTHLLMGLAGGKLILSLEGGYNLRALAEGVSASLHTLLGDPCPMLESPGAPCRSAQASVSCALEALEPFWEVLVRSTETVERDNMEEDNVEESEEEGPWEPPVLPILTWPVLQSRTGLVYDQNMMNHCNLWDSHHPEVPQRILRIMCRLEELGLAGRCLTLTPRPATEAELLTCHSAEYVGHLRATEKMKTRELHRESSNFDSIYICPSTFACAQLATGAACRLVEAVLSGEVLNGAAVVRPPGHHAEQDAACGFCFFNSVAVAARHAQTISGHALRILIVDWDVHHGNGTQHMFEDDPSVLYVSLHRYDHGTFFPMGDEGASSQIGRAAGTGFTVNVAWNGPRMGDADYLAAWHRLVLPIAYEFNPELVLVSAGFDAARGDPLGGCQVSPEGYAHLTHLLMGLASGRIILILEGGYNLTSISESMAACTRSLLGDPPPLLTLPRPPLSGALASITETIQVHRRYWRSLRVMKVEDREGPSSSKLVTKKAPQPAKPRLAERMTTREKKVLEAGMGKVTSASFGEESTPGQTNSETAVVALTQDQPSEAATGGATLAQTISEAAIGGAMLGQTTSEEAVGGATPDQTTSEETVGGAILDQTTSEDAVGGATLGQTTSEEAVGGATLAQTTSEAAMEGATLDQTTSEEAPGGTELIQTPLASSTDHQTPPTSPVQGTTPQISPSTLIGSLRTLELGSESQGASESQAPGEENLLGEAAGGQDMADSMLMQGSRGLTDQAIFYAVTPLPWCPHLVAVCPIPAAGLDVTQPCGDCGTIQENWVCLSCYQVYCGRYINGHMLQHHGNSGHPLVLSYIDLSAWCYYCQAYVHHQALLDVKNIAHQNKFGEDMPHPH
The experiment in a line: HDAC6 enzyme inhibitory activity (HDAC-Glo I/II Assay kit). In kind it is biochemical. The conditions noted are these: 10 μM, wells without enzyme = 100% inhibition; for inhibition at 10 µM: read-out: HDAC6 inhibitory rate (%) (10 μM). The procedure, abridged:
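Luminescent HDAC-Glo I/II readout after 20 min room-temperature reaction with substrate-developer, following 60 min compound–enzyme preincubation. Enzyme: full-length HDAC6 from Sf-9 cells, GST-purified; buffer 24 mM Tris-HCl pH 7.5, 0.01% Tween-20, glutathione, salts. Wells lacking enzyme define 100% inhibition.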

The test system of data set [2] is TK6 cells. As to the kind of experiment: γH2AX assay using TK6 cells. The conditions noted are these: 4 hr treatment, up to 100 μM. In kind it is cell-based, Human. Here is the method: γH2AX Assay Using TK6 Cells
Human lymphoblasts-derived TK6 cells were treated with the compounds of Examples 489, 512 or 519 at 0, 10, 30 or 100 μmol/L (final concentration) for 4 hr, and the presence or absence of DNA damage was evaluated by measuring phosphorylation of histone H2AX (γH2AX) as a marker. In addition, cytotoxicity after 24-hr treatment was also evaluated.
Exponentially growing TK6 cells were prepared at the cell density of 4×10^5 cells/mL in a culture medium, and was added to a 96-well plate by 100 μL/well. A test compound solution (2% DMSO) prepared using a culture solution, having twice the concentration on the above-mentioned final concentrations, was added thereto by 100 μL/well. This plate was incubated at 37° C., the cell suspension after 4 hr was sampled, and stained using In Vitro MultiFlow™ DNA Damage Kit (Litron), and H2AX phosphorylation level in each nucleus was measured using a flow cytometer and average value was calculated. The H2AX phosphorylation level in the concurrent vehicle control group was also measured and average value was calculated. The rate of change in the H2AX phosphorylation level in the treatment groups relative to that in the control group was calculated, and Dunnett test (significance level: two-tailed 1%) was performed. In addition, the cell suspension after 24 hr treatment was sampled, and the nucleus number was measured, and variation in the nucleus number in the treatment groups relative to that in the concurrent vehicle control group was used as an indicator of cytotoxicity. […] Therefore, the potential of the compounds for DNA strand breakage was judged to be negative under this test condition.

Data set [3] has as its system bone-marrow cells. As to the kind of experiment: Micronucleus test in rats (bone-marrow cells). The class given is in vivo, rats (Crl:CD(SD)). The conditions noted are these: rat bone marrow, positive control 20 mg/kg/day. Here is the method:
Combination Assay of Micronucleus Test and Comet Assay in Rats […] Bone-marrow smear for micronucleus analysis was prepared as follows. Femur was cut at both ends, and washed with fetal bovine serum (FBS) in a centrifuging tube, and the obtained bone-marrow fluid was centrifuged for 5 min at room temperature. The supernatant was removed, and the cell sediment was suspended in the remaining small amount of the supernatant. A part of the suspension was dropped on a glass slide, and a cover glass was placed thereon to give a bone-marrow smear. The smear was dried well, and fixed with methanol for 5 min. The bone-marrow smear of negative control, that of treatment groups as well as the previously prepared bone-marrow smear of positive control group were encoded, and observed by the blind method. An acridine orange solution (40 μg/mL) was dropped (several drops) to the smear just before observation, and a cover glass was placed thereon. […] In addition, as an index of growth inhibitory effect on bone-marrow cell, total of 500 erythrocytes [immature erythrocytes+mature erythrocytes (ME)] per individual were observed, and immature erythrocyte rate (IE %) relative to the total number of erythrocytes was calculated.

Consider `CC(F)(F)C(=O)N[C@H]1[C@H](N2Cc3ncc(-c4nnc(C(F)F)o4)cc3C2=O)CCCC1(F)F` [Example 598, N-((1S,6R)-6-(3-(5-(difluoromethyl)-1,3,4-oxadiazol-2-yl)-5-oxo-5,7-dihydro-6H-pyrrolo[3,4-b]pyridin-6-yl)-2,2-difluorocyclohexyl)-2,2-difluoropropanamide], for which the inhibition at 10 µM in data set [1] stood at 100%. For the same molecule, in data set [2], the “histone H2AX phosphorylation (γH2AX) resulted from DNA strand breakage” value is listed as “did not induce histone H2AX phosphorylation” and the “potential for DNA strand breakage (judgement)” value is given as “negative”.
Regarding `O=C1c2cc(-c3nnc(C(F)F)o3)cnc2CN1[C@@H]1COCC[C@H]1Oc1cc(F)cc(F)c1` [Example 650, 1,5-anhydro-2,4-dideoxy-2-(3-(5-(difluoromethyl)-1,3,4-oxadiazol-2-yl)-5-oxo-5,7-dihydro-6H-pyrrolo[3,4-b]pyridin-6-yl)-3-O-(3,5-difluorophenyl)-threo-pentitol (optical isomer)], in data set [1], the inhibition at 10 µM worked out at 99%.
With `O=C1c2cc(-c3nnc(C(F)F)o3)cnc2CN1[C@@H]1COCC[C@H]1Oc1cc(F)cc(F)c1` [Example 651, 1,5-anhydro-2,4-dideoxy-2-(3-(5-(difluoromethyl)-1,3,4-oxadiazol-2-yl)-5-oxo-5,7-dihydro-6H-pyrrolo[3,4-b]pyridin-6-yl)-3-O-(3,5-difluorophenyl)-threo-pentitol (optical isomer)], the “HDAC6 inhibitory rate (%) (10 μM)” value in data set [1] turned out to be 100%.
As to `O=C1c2cc(-c3nnc(C(F)F)o3)cnc2CN1[C@@H]1COCC[C@H]1Oc1cccc(F)c1` [Example 652, 1,5-anhydro-2,4-dideoxy-2-(3-(5-(difluoromethyl)-1,3,4-oxadiazol-2-yl)-5-oxo-5,7-dihydro-6H-pyrrolo[3,4-b]pyridin-6-yl)-3-O-(3-fluorophenyl)-threo-pentitol (optical isomer)], in data set [1], the inhibition at 10 µM was determined as 100%.
Regarding `O=C1c2cc(-c3nnc(C(F)F)o3)cnc2CN1[C@@H]1COCC[C@H]1Oc1cccc(F)c1` [Example 653, 1,5-anhydro-2,4-dideoxy-2-(3-(5-(difluoromethyl)-1,3,4-oxadiazol-2-yl)-5-oxo-5,7-dihydro-6H-pyrrolo[3,4-b]pyridin-6-yl)-3-O-(3-fluorophenyl)-threo-pentitol (optical isomer)], the “HDAC6 inhibitory rate (%) (10 μM)” value in data set [1] is given as 99%.
In the case of `O=C1c2cc(-c3nnc(C(F)F)o3)cnc2CN1[C@@H]1COCC[C@H]1Oc1ccc(F)cc1F` [Example 655, 1,5-anhydro-2,4-dideoxy-2-(3-(5-(difluoromethyl)-1,3,4-oxadiazol-2-yl)-5-oxo-5,7-dihydro-6H-pyrrolo[3,4-b]pyridin-6-yl)-3-O-(2,4-difluorophenyl)-threo-pentitol], the inhibition at 10 µM in data set [1] amounted to 96%.
Regarding `O=C1c2cc(-c3nnc(C(F)F)o3)cnc2CN1[C@@H]1COCC[C@H]1Oc1ccc(F)cc1F` [Example 656, 1,5-anhydro-2,4-dideoxy-2-(3-(5-(difluoromethyl)-1,3,4-oxadiazol-2-yl)-5-oxo-5,7-dihydro-6H-pyrrolo[3,4-b]pyridin-6-yl)-3-O-(2,4-difluorophenyl)-threo-pentitol (Optical Isomer)], the “HDAC6 inhibitory rate (%) (10 μM)” value in data set [1] was found to be 100%.
On to `O=C1c2cc(-c3nnc(C(F)F)o3)cnc2CN1[C@@H]1COCC[C@H]1Oc1cccc(F)c1F` [Example 657, 1,5-anhydro-2,4-dideoxy-2-{3-[5-(difluoromethyl)-1,3,4-oxadiazol-2-yl]-5-oxo-5,7-dihydro-6H-pyrrolo[3,4-b]pyridin-6-yl}-3-O-(2,3-difluorophenyl)-threo-pentitol (optical isomer)], for which, in data set [1], the inhibition at 10 µM was determined as 100%.
The same measure, in the same setting: the same measure for `O=C1c2cc(-c3nnc(C(F)F)o3)cnc2CN1[C@@H]1COCC[C@H]1Oc1c(F)cccc1F` [Example 659, 1,5-anhydro-2,4-dideoxy-2-{3-[5-(difluoromethyl)-1,3,4-oxadiazol-2-yl]-5-oxo-5,7-dihydro-6H-pyrrolo[3,4-b]pyridin-6-yl}-3-O-(2,6-difluorophenyl)-threo-pentitol (optical isomer)]: 99%.
Take `O=C1c2cc(-c3nnc(C(F)F)o3)cnc2CN1[C@@H]1COCC[C@H]1Oc1c(F)cccc1F` [Example 660, 1,5-anhydro-2,4-dideoxy-2-{3-[5-(difluoromethyl)-1,3,4-oxadiazol-2-yl]-5-oxo-5,7-dihydro-6H-pyrrolo[3,4-b]pyridin-6-yl}-3-O-(2,6-difluorophenyl)-threo-pentitol (optical isomer)]: in data set [1], the “HDAC6 inhibitory rate (%) (10 μM)” value is recorded as 100%.
Consider `O=C1c2cc(-c3nnc(C(F)F)o3)cnc2CN1[C@@H]1CCCC[C@@H]1NC(=O)C(F)(F)C(F)(F)F` [Example 661, N-[(1S,2R)-2-{3-[5-(difluoromethyl)-1,3,4-oxadiazol-2-yl]-5-oxo-5,7-dihydro-6H-pyrrolo[3,4-b]pyridin-6-yl}cyclohexyl]-2,2,3,3,3-pentafluoropropanamide], for which the inhibition at 10 µM in data set [1] stood at 99%.
Consider `O=P1(N(CCCl)CCCl)NCCCO1` (centres unmarked) [cyclophosphamide], for which the “micronucleated immature erythrocytes incidences (MNIE %), mean ± SD” value in data set [3] is on record as “↑2.77 ± 0.88 %”.
